Like-named read-outs stand apart in the source and are kept apart here. Marks after values point to notes of the source that are not given here. Non-standard residues stand in square brackets, D forms with d. Residues, ends and D or L forms follow the SMILES beside them. ξ: configuration not given here. ξOrn(N(OH)Ac) = CC(=O)N(O)CCCC(N)C(=O)O
Tests used:
[1] = system: SD male rats having iron deficiency anemia; assay: Measurement of hemoglobin concentration in the blood; type: in vivo, rat; settings: mean±SD of five rats
From the text: The rats in the control group were fed iron-containing food 1 (ferric citrate) during the study.

[2] = system: SD male rats having iron deficiency anemia; assay: Measurement of serum iron concentration; type: in vivo, rat; settings: 3 weeks free feeding, food iron content 35 ppm; mean±SD of five rats
Method: Serum was prepared from the blood wholly exsanguinated from the rats of each group after the rats had been given their iron-containing food, so as to measure iron concentrations in the serums by a usual method.

[3] = system: SD male rats having iron deficiency anemia; assay: Measurement of iron concentration in the liver; type: in vivo, rat; settings: 3 weeks free feeding, food iron content 35 ppm; mean±SD of five rats
Method: Rats of the control group were fed food 1 (ferric citrate) from the beginning, i.e. through to the end. At the end of the experiment, livers were removed after perfusion of saline into the portal vein to exclude the blood; they were weighed and freeze-dried. The dried liver was subsequently incinerated and subjected to atomic absorption, so as to measure the iron concentration in the liver. Further, the water content of the liver was calculated, and the concentration of iron stored in the liver of the body was determined based on the iron concentration in the dried liver and the water content of the liver.

[4] = system: SD male rats having iron deficiency anemia; settings: rat, in vivo
From the text: Five four-week-old SD male rats as the control group were fed iron-containing food 1.
The fifteen rats having iron deficiency anemia were subsequently divided into three groups, and were freely fed iron-containing foods 1, 2 and 3, respectively, for 3 weeks. As the iron source, iron-containing food 1 contains ferric citrate; iron-containing food 2 contains water-soluble heme iron; and iron-containing food 3 contains ferrichrysin.
Measurements were made by a usual method of the concentrations of protein, ALT (alanine aminotransferase), AST (aspartate aminotransferase) and creatinine in the serums of the groups of rats which were fed iron-containing food 1 (ferric citrate), food 2 (heme iron) and food 3 (ferrichrysin) after the development of iron deficiency anemia, as well as the rats in the control group which were fed food 1 (ferric citrate) from the beginning.

[5] = Solubility of ferrichrysin in water compared with other iron compounds; settings: for Precipitate: 0.1 g in 1 ml, 37° C., 90 min, centrifuged, visual
Method: The solubility of ferrichrysin was compared with the solubilities of other iron compounds. Water-soluble heme iron, ferric citrate and ferrichrysin which were used in Example 1 were used as iron compounds. 0.1 g of each of these iron compounds was dissolved in 1 ml of each buffer having a pH of 2 or 7, and then the solutions were incubated at 37° C. for 90 min. A glycine/hydrochloric acid buffer was used as the pH 2 buffer, and a phosphate buffer was used as the pH 7 buffer. The concentration of buffer agent(s) in each buffer was adjusted to 0.1 mol/l. After being incubated, each buffer was centrifuged to visually confirm the presence or absence of precipitate. Further, the iron concentration in the supernatant of each buffer was measured by atomic absorption.

[6] = Thermal and pH stabilities of ferrichrysin (absorbance at 430 nm before/after sterilization); type: physicochemical; settings: 0.25 mg/ml; for Absorbance at 430 nm after sterilization: 20 min, 120° C., 200 kPa
Method: Ferrichrysin is known to show an absorption maximum at 430 nm. Ferrichrysin was tested for pH and thermal stabilities utilizing this property.
Ferrichrysin prepared from a rice koji extract in the manner as described above was dissolved in ultrapure water to a concentration of 2.5 mg/ml. The resulting solution was subsequently diluted to give a ferrichrysin concentration of 0.25 mg/ml using each of the following buffers. A glycine-hydrochloric acid buffer was used for a pH 2 or pH 3 buffer; a acetate buffer was used for a pH 4 or pH 5 buffer; a phosphate buffer was used for a pH 6 or pH 7 buffer; a tris-hydrochloric acid buffer was used for a pH 8 buffer; and a glycine-sodium hydroxide buffer was used for a pH 9 or pH 10 buffer.
Each ferrichrysin solution was placed in a screw-cap test tube, and then the test tube was sealed. The solution was subsequently sterilized by a process of steaming under pressure for 20 min at a temperature of 120° C. and a pressure of 200 kPa. The absorbance of each solution at 430 nm was measured prior to and after the sterilization.

[7] = for Proportion of the iron concentration after the reaction to the initial iron concentration (1 mg/ml): phytic acid, 37° C., 3 hr, filtrate, cut-off 10000
Method: (§1) Ferrichrysin was tested for its reactivity with tannic acid and phytic acid, the typical iron uptake inhibitor, so as to compare its reactivity with that of other iron compounds with these iron uptake inhibitor.
(§2) A 0.6% tannic acid solution and a 0.6% phytic acid solution were also prepared. The pH of each of these solutions was adjusted with hydrochloric acid or sodium hydroxide to 2.0, 4.0, 6.0 or 8.0.
(§3) The iron-compound solutions were mixed with each of the tannic acid and phytic acid solutions at a volume ratio of 1:9, and then the mixtures were incubated at 37° C. for 3 hr, so as to react the iron compounds with each of these iron uptake inhibitor. The resulting solutions were centrifuged at 15000 rpm for 5 min, and then the supernatant of each solution was ultrafiltrated using membranes having a molecular weight cut-off of 10000. The iron concentration in each filtrate was measured by atomic absorption.

[8] = for Proportion of the iron concentration after the reaction to the initial iron concentration (1 mg/ml): tannic acid, 37° C., 3 hr, filtrate, cut-off 10000
Method: as §1, §2, §3

[9] = system: SD male rats having iron deficiency anemia; settings: rat, in vivo; remark: listed apart in the source
From the text: Fifteen four-week-old SD male rats were freely fed an iron-deficient food for 35 days to develop iron deficiency anemia with the average blood hemoglobin value reduced to 6.5 g/dl. Five four-week-old SD male rats as the control group were fed iron-containing food 1.
The weight gain in each group is the mean±standard deviation value of the five rats in the group.

CC(=O)N([O-])CCCC1NC(=O)CNC(=O)C(CO)NC(=O)C(CO)NC(=O)C(CCCN([O-])C(C)=O)NC(=O)C(CCCN([O-])C(C)=O)NC1=O.[Fe+3] (stereo not drawn) [Ferrichrysin, ferrichrysin] (cyclo(G[ξOrn(N(OH)Ac)][ξOrn(N(OH)Ac)][ξOrn(N(OH)Ac)]SS); configuration not given here)
Hemoglobin concentration in the blood, after feeding iron-containing food ([1]; 3 weeks free feeding, food iron content 35 ppm): 14.3 ± 0.3 g/dL
Hemoglobin concentration in the blood, before feeding iron-containing food ([1]; baseline after 35 days iron-deficient food): 6.4 ± 0.9 g/dL
Serum iron concentration after feeding iron-containing food [2]: 116.7 ± 24.1 µg/dL
Iron concentration in the liver [3]: 39.3 ± 7.6 ppm
ALT [4]: 17.7 ± 2.3^a Karmen
AST [4]: 72.3 ± 3.2^b Karmen
Creatinine [4]: 0.63 ± 0.06 mg/dL
Serum protein [4]: 67.6 ± 4.1 mg/mL
Side effects on the body (liver and kidney function), in words [4]: no harmful side effects
Water solubility, in words [5]: very high water solubility
Precipitate ([5]; pH 2.0): No
Precipitate ([5]; pH 7.0): No
Absorbance at 430 nm before sterilization ([6]; pH 2.0): 0.709
Absorbance at 430 nm after sterilization ([6]; pH 2.0): 0.366
Absorbance at 430 nm before sterilization ([6]; pH 3.0): 0.742
Absorbance at 430 nm after sterilization ([6]; pH 3.0): 0.721
Absorbance at 430 nm before sterilization ([6]; pH 4.0): 0.738
Absorbance at 430 nm after sterilization ([6]; pH 4.0): 0.743
Absorbance at 430 nm before sterilization ([6]; pH 5.0): 0.732
Absorbance at 430 nm after sterilization ([6]; pH 5.0): 0.748
Absorbance at 430 nm before sterilization ([6]; pH 6.0): 0.743
Absorbance at 430 nm after sterilization ([6]; pH 6.0): 0.746
Absorbance at 430 nm before sterilization ([6]; pH 7.0): 0.764
Absorbance at 430 nm after sterilization ([6]; pH 7.0): 0.774
Absorbance at 430 nm before sterilization ([6]; pH 8.0): 0.758
Absorbance at 430 nm after sterilization ([6]; pH 8.0): 0.747
Absorbance at 430 nm before sterilization ([6]; pH 9.0): 0.765
Absorbance at 430 nm after sterilization ([6]; pH 9.0): 0.767
Absorbance at 430 nm before sterilization ([6]; pH 10.0): 0.769
Absorbance at 430 nm after sterilization ([6]; pH 10.0): 0.772
Reactivity with iron-insolubilizing component, in words ([7]; pH 2): low reactivity
Proportion of the iron concentration after the reaction to the initial iron concentration (1 mg/ml) ([7]; pH 2.0): 85.7%
Proportion of the iron concentration after the reaction to the initial iron concentration (1 mg/ml) ([7]; pH 4.0): 100.6%
Proportion of the iron concentration after the reaction to the initial iron concentration (1 mg/ml) ([7]; pH 6.0): 101.8%
Proportion of the iron concentration after the reaction to the initial iron concentration (1 mg/ml) ([7]; pH 8.0): 100.3%
Reactivity with iron-insolubilizing component, in words ([8]; pH 2): low reactivity
Proportion of the iron concentration after the reaction to the initial iron concentration (1 mg/ml) ([8]; pH 2.0): 80.5%
Proportion of the iron concentration after the reaction to the initial iron concentration (1 mg/ml) ([8]; pH 4.0): 71.8%
Proportion of the iron concentration after the reaction to the initial iron concentration (1 mg/ml) ([8]; pH 6.0): 76.1%
Proportion of the iron concentration after the reaction to the initial iron concentration (1 mg/ml) ([8]; pH 8.0): 81.9%
Average food intake [9]: 366.3 g/3 weeks
Body weight gain [9]: 70.1 ± 8.3 g/3 weeks

— patent US20080113899A1, “Iron Supplement and Utilization of the Same” (GEKKEIKAN SAKE CO., LTD., priority 2004, published 2008)
